Like-named read-outs stand apart in the source and are kept apart here.
What was measured:
human PI3Kα protein = target: T1, human PI3Kα protein (Homo sapiens, UniProt P42336); test: PI3Kα enzyme assay (ADP-Glo kinase assay); assay type: biochemical; conditions: 3 nM PI3Kα, 50 μM PIP2, 100 μM ATP
T1 construct: purchased Carna Biosciences, Inc; host or cells: Baculovirus expression system
Procedure: Evaluation of the PI3Kα inhibitory activity of the compound of the present invention was carried out according to the method as described below.
For the PI3Kα enzyme assay, biotinylated product of a human PI3Kα protein produced using a Baculovirus expression system (Carna Biosciences, Inc.) was used. Further, for the detection of the enzyme activity, an ADP-Glo kinase assay (PROMEGA Corporation) was used.
10 μL of a reaction solution (3 nM PI3Kα, 40 mM Tris-HCl, 20 mM MgCl2, 0.1% BSA, pH 7.5) including the human PI3Kα protein and a test compound at a predetermined concentration was incubated at room temperature for 15 minutes. Thereafter, 5 μL of a mixed solution of L-α-Phosphatidylinositol 4,5-diphosphate (PIP2) (SIGMA-ALDLICH) which was a substrate and ATP(SIGMA-ALDLICH) was added thereto to a final concentration of 50 μM and 100 μM, respectively, and the reaction solution was further incubated at 25° C. for 60 minutes to carry out an enzyme reaction.
After the reaction, 15 μL of an ADP-Glo reagent (PROMEGA Corporation) was added and the resulting liquid was incubated at room temperature for 60 minutes, whereby the enzyme reaction was stopped. Thereafter, after further adding 30 μL of a Kinase Detection Reagent (PROMEGA Corporation) and standing the resulting solution at room temperature for 40 minutes, ADP produced by the enzyme reaction was quantified by luminescence intensity.
For the measurement of luminescence intensity, EnVision (PerkinElmer, Inc.) was used.
(§1) The inhibitory activity of the compounds was evaluated using an IC50 (50% inhibitory concentration). The IC50 was calculated using XLfit (IDBS).

[1] = target: T2, glutathione S-transferase (GST)-fusion human ERK2 protein (Homo sapiens, UniProt P28482); test: ERK2 enzyme assay (LabChip mobility shift); assay type: biochemical; conditions: 2 nM ERK2, 4.25 μM FL-Peptide 8, 43 μM ATP
T2 construct: purchased Carna Biosciences, Inc; host or cells: E. coli expression system
T2 sequence (P28482 whole entry, the tested form may be a part): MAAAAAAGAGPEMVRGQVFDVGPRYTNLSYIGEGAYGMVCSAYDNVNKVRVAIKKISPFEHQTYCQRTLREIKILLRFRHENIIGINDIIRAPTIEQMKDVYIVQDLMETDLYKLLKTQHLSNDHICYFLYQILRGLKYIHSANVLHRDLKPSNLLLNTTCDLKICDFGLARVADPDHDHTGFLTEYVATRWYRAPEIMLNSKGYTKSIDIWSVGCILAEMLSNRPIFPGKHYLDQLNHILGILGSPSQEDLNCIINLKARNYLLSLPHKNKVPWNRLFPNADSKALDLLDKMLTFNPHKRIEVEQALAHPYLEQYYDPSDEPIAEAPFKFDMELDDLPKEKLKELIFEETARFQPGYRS
Procedure: Evaluation of the ERK2 inhibitory activity of the compound of the present invention was carried out according to the method as described below.
For the ERK2 enzyme assay, a glutathione S-transferase (GST)-fusion human ERK2 protein (Carna Biosciences, Inc.) produced using an E. coli expression system was used.
12 μL of the reaction solution (2 nM ERK2, 100 mM Hepes, 10 mM MgCl2, 1.5 mM DTT, 0.003% Brij35, pH 7.5) including the ERK2 protein and a test compound at a predetermined concentration was incubatedat room temperature for 15 minutes. Thereafter, 3 μL of a mixed solution of FL-Peptide 8 (5-FAM-IPTSPITTTYFFFKKK-COOH) (Caliper Lifescience) which was a substrate and ATP(SIGMA-ALDLICH) were added thereto to a final concentration of 4.25 μM and 43 μM, respectively. The reaction solution was further incubated at 25° C. for 120 minutes to carry out an enzyme reaction.
The enzyme reaction was stopped by adding 27 μL of a reaction-stopping solution (100 mM HEPES, 11.2 mM EDTA, 5.6% Brij35, pH 7.5) including a 0.5% Coating reagent 8 (PerkinElmer, Inc.) after the reaction. Thereafter, non-phosphorylated peptides and phosphorylated peptides were separated using LabChip Ez Reader (Caliper LifeScience, Inc.) to quantify the proportion of phosphorylated peptides.
as §1

[2] = IC50 class, read-out: PI3Kα Inhibitory Activity
[3] = IC50 class, read-out: ERK2 Inhibitory Activity

T1 sequence (P42336 whole entry): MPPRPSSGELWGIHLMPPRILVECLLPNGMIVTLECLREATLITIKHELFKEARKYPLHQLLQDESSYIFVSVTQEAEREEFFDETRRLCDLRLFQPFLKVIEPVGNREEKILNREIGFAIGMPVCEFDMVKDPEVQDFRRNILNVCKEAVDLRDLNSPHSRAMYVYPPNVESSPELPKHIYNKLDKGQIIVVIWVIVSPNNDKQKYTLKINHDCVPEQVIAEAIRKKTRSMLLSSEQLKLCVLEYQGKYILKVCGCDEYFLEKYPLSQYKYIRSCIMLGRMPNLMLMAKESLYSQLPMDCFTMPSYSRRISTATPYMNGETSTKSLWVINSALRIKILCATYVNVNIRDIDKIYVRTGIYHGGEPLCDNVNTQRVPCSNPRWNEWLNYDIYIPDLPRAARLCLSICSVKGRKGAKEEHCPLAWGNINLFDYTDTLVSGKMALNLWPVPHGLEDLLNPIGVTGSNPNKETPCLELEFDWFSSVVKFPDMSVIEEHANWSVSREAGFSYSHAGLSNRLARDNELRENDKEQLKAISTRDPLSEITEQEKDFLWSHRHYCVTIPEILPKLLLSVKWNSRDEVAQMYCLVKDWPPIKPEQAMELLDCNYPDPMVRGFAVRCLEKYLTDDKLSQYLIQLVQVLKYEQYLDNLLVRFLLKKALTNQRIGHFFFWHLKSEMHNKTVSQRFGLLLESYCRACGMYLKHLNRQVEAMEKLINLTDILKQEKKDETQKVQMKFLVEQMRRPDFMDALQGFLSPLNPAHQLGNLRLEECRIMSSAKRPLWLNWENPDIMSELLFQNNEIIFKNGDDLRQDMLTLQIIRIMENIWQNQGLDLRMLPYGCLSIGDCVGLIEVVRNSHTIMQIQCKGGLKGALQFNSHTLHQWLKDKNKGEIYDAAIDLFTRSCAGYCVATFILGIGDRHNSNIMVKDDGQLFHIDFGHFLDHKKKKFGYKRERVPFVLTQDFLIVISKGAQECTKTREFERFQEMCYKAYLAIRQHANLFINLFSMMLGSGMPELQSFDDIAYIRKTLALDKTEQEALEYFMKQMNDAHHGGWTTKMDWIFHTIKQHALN
T1 sequence (P27986 whole entry partner): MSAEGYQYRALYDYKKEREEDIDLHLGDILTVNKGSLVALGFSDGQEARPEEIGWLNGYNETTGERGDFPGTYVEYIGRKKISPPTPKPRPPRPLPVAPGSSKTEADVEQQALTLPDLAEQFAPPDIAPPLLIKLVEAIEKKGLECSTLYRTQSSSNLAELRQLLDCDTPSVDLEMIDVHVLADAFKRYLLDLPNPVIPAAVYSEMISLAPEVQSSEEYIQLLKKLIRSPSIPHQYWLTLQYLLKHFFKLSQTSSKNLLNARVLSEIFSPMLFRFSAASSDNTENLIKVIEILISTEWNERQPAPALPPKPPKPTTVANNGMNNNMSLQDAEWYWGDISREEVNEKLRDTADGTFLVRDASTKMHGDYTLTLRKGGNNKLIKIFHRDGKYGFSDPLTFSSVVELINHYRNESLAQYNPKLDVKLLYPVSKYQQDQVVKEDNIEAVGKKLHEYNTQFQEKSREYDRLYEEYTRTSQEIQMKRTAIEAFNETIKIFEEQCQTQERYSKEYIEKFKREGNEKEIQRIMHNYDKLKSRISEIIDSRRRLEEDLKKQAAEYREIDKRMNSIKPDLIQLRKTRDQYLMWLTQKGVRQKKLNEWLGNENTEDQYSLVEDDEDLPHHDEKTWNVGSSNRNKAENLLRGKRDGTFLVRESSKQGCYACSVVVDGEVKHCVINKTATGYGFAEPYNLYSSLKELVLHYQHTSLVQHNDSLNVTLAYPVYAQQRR

SMILES | IC50 (human PI3Kα protein; [2]) [nM] | IC50 [1, 3] [nM] | IC50 (human PI3Kα protein; read-out: PI3Kα, IC50) [nM] | IC50 ([1]; read-out: ERK2, IC50) [nM]
O=C(Nc1ccc2ncc(-c3cnn(C4CCNC4)c3)cc2n1)NC1CCCC1 (centres unmarked) [Compound 0144] | < 100 | 100 to 1000 | – | –
O=C(Nc1ccc2ncc(-c3cn[nH]c3)cc2n1)NC1CCN(Cc2ccccc2)C1 (centres unmarked) [Compound 0069] | 100 to 1000 | < 100 | 133 | < 3
O=C(Nc1ccc2ncc(N3CC(O)C3)cc2n1)NC1CCCC1 [Compound 0038] | < 100 | < 100 | – | –
CC1(NC(=O)Nc2ccc3ncc(-c4cn[nH]c4)cc3n2)CCC1 [Compound 0195] | < 100 | 100 to 1000 | – | –
COCCNC(=O)Nc1ccc2ncc(-c3cn[nH]c3)cc2n1 [Compound 0098] | 100 to 1000 | < 100 | – | –
COc1c(-c2cnn(C)c2)cnc2ccc(NC(=O)NC3CCCC3)nc12 [Compound 0235] | < 100 | < 100 | – | –
Cn1cc(-c2cnc3ccc(NC(=S)NC(=O)c4ccccc4)nc3c2)cn1 [Compound 0251] | 100 to 1000 | 100 to 1000 | – | –
O=C(Nc1ccc2ncc(-c3cnn(CCCN4CCCC4)c3)cc2n1)NC1CCCC1 [Compound 0246] | < 100 | < 100 | – | –
CS(=O)(=O)N1CCN(c2cnc3ccc(NC(=O)NC4CCCC4)nc3c2)CC1 [Compound 0151] | < 100 | < 100 | – | –
O=C(Nc1ccc2ncc(-c3cn[nH]c3)cc2n1)NC1CC[C@H](O)C1 (some centres unmarked) [Compound 0091] | < 100 | < 100 | – | –
COc1cc(-c2cnc3ccc(NC(=O)NC4CCCC4)nc3c2)ccn1 [Compound 0022] | < 100 | < 100 | – | –
CCN1CCN(CCCn2cc(-c3cnc4ccc(NC(=O)NC5CCCC5)nc4c3)cn2)CC1 [Compound 0233] | < 100 | < 100 | – | –
CN(C)CCOc1cc(-c2cnc3ccc(NC(=O)NC4CCCC4)nc3c2)ccc1O [Compound 0016] | < 100 | < 100 | – | –
O=C(Nc1ccc2ncc(-c3cn[nH]c3)cc2n1)N[C@H]1CCNC1 [Compound 0074] | 1000 to 10000 | < 100 | – | –
CCOC(=O)CNC(=O)Nc1ccc2ncc(-c3cn[nH]c3)cc2n1 [Compound 0062] | 1000 to 10000 | 100 to 1000 | – | –
COCCn1cc(-c2cnc3ccc(NC(=O)NC4CCCC4)nc3c2)cn1 [Compound 0032] | < 100 | < 100 | – | –
CN1CCN(CCCn2cc(-c3cnc4ccc(NC(=O)NC5CCCC5)nc4c3)cn2)CC1 [Compound 0232] | < 100 | < 100 | – | –
CC(C)(C)NC(=O)Nc1ccc2ncc(-c3cn[nH]c3)cc2n1 [Compound 0059] | < 100 | < 100 | – | –
O=C(Nc1ccc2ncc(-c3c[nH]nc3C(F)(F)F)cc2n1)NC1CCCC1 [Compound 0124] | < 100 | < 100 | – | –
C[C@@H](NC(=O)Nc1ccc2ncc(-c3cnn(CCCN4CCOCC4)c3)cc2n1)C1CCCCC1 [Compound 0181] | < 100 | < 100 | – | –
O=C(Nc1ccc2ncc(N3CCN(c4ccccc4)CC3)cc2n1)NC1CCCC1 [Compound 0153] | 100 to 1000 | > 10000 | – | –
O=C(Nc1ccc2ncc(-c3cn[nH]c3)cc2n1)NN1CCCC1 [Compound 0204] | 100 to 1000 | 100 to 1000 | – | –
Cn1cc(-c2cnc3ccc(NC(=O)NC4CCCC4)nc3c2)cn1 [Compound 0003] | < 100 | < 100 | – | –
CCCCNC(=O)Nc1ccc2ncc(-c3cn[nH]c3)cc2n1 [Compound 0093] | < 100 | < 100 | – | –
CC(C)C(C)NC(=O)Nc1ccc2ncc(-c3cn[nH]c3)cc2n1 (centres unmarked) [Compound 0072] | < 100 | < 100 | – | –
O=C(Nc1ccc2ncc(-c3ccoc3)cc2n1)NC1CCCC1 [Compound 0119] | 100 to 1000 | < 100 | – | –

SMILES | IC50 (human PI3Kα protein; [2]) [nM] | IC50 [1, 3] [nM] | IC50 (human PI3Kα protein; read-out: PI3Kα, IC50) [nM] | IC50 ([1]; read-out: ERK2, IC50) [nM]
Cc1n[nH]c(C)c1-c1cnc2ccc(NC(=O)NC3CCCC3)nc2c1 [Compound 0049] | < 100 | < 100 | – | –
O=C(NCCCCc1ccccc1)Nc1ccc2ncc(-c3cn[nH]c3)cc2n1 [Compound 0064] | < 100 | < 100 | 50 | < 3
CCN(CC)CCNC(=O)Nc1ccc2ncc(-c3cn[nH]c3)cc2n1 [Compound 0109] | > 10000 | 1000 to 10000 | – | –
CCNC(=O)Nc1ccc2ncc(-c3cn[nH]c3)cc2n1 [Compound 0054] | 100 to 1000 | < 100 | – | –
O=C(Nc1ccc2ncc(Nc3cc[nH]n3)cc2n1)NC1CCCC1 [Compound 0126] | < 100 | 100 to 1000 | – | –
C[C@@H](NC(=O)Nc1ccc2ncc(-c3cn[nH]c3)cc2n1)C1CCCCC1 [Compound 0080] | < 100 | < 100 | 60 | < 3
O=C(NCCCCC1OCCO1)Nc1ccc2ncc(-c3cn[nH]c3)cc2n1 [Compound 0174] | < 100 | < 100 | – | –
O=C(Nc1ccc2ncc(-c3cn[nH]c3)cc2n1)N[C@H]1CCC[C@@H]1OCc1ccccc1 [Compound 0159] | < 100 | 100 to 1000 | – | –
O=C(NCC1C[C@@H]2CC[C@H]1C2)Nc1ccc2ncc(-c3cnn(CCN4CCNCC4)c3)cc2n1 (some centres unmarked) [Compound 0252] | 100 to 1000 | 100 to 1000 | – | –
CC1CN(c2cnc3ccc(NC(=O)NC4CCCC4)nc3c2)CCO1 (centres unmarked) [Compound 0090] | < 100 | 100 to 1000 | – | –
O=C(NCC1CCC1)Nc1ccc2ncc(-c3cn[nH]c3)cc2n1 [Compound 0188] | < 100 | < 100 | – | –
CC(C)(C)OC(=O)N1CC[C@@H](NC(=O)Nc2ccc3ncc(-c4cn[nH]c4)cc3n2)C1 [Compound 0070] | 100 to 1000 | < 100 | – | –
C[C@H](C[C@@H](C)Oc1ccccc1)NC(=O)Nc1ccc2ncc(-c3cn[nH]c3)cc2n1 [Compound 0161] | 100 to 1000 | < 100 | – | –
O=C(Nc1ccc2ncc(N3CCS(=O)(=O)CC3)cc2n1)NC1CCCC1 [Compound 0133] | < 100 | < 100 | – | –
Cn1cc(-c2cnc3ccc(NC(=O)NC4CCCC4)nc3c2Cl)cn1 [Compound 0226] | < 100 | < 100 | – | –
O=C(NCCO)Nc1ccc2ncc(-c3cn[nH]c3)cc2n1 [Compound 0097] | 1000 to 10000 | 100 to 1000 | – | –
CC(C)(C)OC(=O)N1CC[C@H](NC(=O)Nc2ccc3ncc(-c4cn[nH]c4)cc3n2)C1 [Compound 0071] | < 100 | 100 to 1000 | – | –
S=C(Nc1ccc2ncc(-c3cnn(CCCN4CCNCC4)c3)cc2n1)NC1CCCC1 [Compound 0220] | < 100 | < 100 | – | –
O=C(Nc1ccc2ncc(N3CC(OCCCN4CCOCC4)C3)cc2n1)NC1CCCC1 [Compound 0240] | < 100 | 100 to 1000 | – | –
C[C@@H](CN(C)C)Cn1cc(-c2cnc3ccc(NC(=O)NC4CCCC4)nc3c2)cn1 [Compound 0245] | < 100 | 100 to 1000 | – | –
O=C(NCCCCc1ccccc1F)Nc1ccc2ncc(-c3cnn(CCCN4CCOCC4)c3)cc2n1 [Compound 0183] | < 100 | < 100 | – | –
O=C(NCc1ccccc1)Nc1ccc2ncc(-c3cn[nH]c3)cc2n1 [Compound 0060] | 100 to 1000 | < 100 | – | –
O=C(NCCCCc1cccc(Cl)c1)Nc1ccc2ncc(-c3cn[nH]c3)cc2n1 [Compound 0166] | 100 to 1000 | < 100 | – | –
O=C(Nc1ccc2ncc(-c3ccnc(F)c3)cc2n1)NC1CCCC1 [Compound 0039] | 100 to 1000 | < 100 | – | –
N#Cc1cnc2ccc(NC(=O)NC3CCCC3)nc2c1 [Compound 0129] | 1000 to 10000 | 1000 to 10000 | – | –
O=C(Nc1ccc2ncc(-c3ccc4c(c3)OCO4)cc2n1)NC1CCCC1 [Compound 0120] | 100 to 1000 | 100 to 1000 | – | –

— patent publication US8841456B2, “1,5-naphthyridine derivative or salt thereof” (FUJIFILM Corporation, priority 2011, dated 2014)
